From BindingDB's records for doi:10.1124/jpet.102.046318 (Georgetown University, 2003)

Experiments:
[1] = molecular target: Sodium-dependent dopamine transporter (Rattus norvegicus, UniProt P23977)
[2] = molecular target: Norepinephrine transporter (Rattus norvegicus, UniProt Q9JIA2)
[3] = molecular target: Sodium-dependent serotonin transporter (Rattus norvegicus, UniProt P31652)
Sequence of Sodium-dependent serotonin transporter (P31652 whole entry): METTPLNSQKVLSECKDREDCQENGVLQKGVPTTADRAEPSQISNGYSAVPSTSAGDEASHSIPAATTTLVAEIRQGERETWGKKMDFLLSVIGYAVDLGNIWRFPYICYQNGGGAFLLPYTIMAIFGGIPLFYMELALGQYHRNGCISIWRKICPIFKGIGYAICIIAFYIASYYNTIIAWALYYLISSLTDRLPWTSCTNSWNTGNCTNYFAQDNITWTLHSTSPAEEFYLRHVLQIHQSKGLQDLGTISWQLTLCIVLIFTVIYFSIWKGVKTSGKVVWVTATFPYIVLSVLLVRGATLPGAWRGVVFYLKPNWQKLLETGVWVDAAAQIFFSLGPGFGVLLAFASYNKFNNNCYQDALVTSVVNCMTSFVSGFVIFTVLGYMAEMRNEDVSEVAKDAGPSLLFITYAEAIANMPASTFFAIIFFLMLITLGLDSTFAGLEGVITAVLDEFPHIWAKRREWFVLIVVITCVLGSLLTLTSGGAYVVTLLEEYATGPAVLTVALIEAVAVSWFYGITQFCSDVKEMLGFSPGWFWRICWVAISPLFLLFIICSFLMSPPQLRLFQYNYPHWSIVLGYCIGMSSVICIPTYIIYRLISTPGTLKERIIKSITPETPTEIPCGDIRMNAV

Sequence of Sodium-dependent dopamine transporter (P23977 whole entry): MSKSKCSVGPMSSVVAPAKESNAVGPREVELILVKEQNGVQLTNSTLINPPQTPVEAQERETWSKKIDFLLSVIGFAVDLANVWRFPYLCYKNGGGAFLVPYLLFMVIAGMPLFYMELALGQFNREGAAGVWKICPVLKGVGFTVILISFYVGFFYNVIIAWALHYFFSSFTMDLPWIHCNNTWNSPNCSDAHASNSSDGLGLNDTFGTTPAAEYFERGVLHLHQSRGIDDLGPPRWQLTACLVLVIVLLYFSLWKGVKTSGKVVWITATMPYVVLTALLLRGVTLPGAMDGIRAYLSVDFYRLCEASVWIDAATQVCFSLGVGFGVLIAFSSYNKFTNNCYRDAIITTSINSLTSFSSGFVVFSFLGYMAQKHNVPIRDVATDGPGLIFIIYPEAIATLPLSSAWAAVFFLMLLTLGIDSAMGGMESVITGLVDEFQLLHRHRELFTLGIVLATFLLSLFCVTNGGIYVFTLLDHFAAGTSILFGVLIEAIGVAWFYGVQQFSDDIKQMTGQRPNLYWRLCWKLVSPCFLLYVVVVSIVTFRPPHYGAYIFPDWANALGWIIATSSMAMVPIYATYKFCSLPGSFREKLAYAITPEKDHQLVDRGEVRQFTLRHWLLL

Row | Compound | Ki [1] [nM] | Ki [2] [nM] | Ki [3] [nM]
1 | CN1CCC(c2ccc(Cl)cc2)[C@@H](C(=O)O)C1 (stereo partly drawn) [cis-CPCA, -] | 67 | 98 | 
2 | CN1CCC(c2ccc(Cl)cc2)[C@H](C(=O)O)C1 (stereo not given in full) [CAS_8268] | 276 | 90 | 5900
